Assay results reported in US8501446B2 (Vertex Pharmaceuticals Incorporated, priority 2004, dated 2013).

Key:
Assay type in all cases: biochemical
JAK3 = target: T1, JAK3 (Homo sapiens, UniProt P52333); assay: JAK3 inhibition assay (standard radioactive enzyme assay); conditions: average Ki if more than one value determined
T1 sequence (P52333 1-1124): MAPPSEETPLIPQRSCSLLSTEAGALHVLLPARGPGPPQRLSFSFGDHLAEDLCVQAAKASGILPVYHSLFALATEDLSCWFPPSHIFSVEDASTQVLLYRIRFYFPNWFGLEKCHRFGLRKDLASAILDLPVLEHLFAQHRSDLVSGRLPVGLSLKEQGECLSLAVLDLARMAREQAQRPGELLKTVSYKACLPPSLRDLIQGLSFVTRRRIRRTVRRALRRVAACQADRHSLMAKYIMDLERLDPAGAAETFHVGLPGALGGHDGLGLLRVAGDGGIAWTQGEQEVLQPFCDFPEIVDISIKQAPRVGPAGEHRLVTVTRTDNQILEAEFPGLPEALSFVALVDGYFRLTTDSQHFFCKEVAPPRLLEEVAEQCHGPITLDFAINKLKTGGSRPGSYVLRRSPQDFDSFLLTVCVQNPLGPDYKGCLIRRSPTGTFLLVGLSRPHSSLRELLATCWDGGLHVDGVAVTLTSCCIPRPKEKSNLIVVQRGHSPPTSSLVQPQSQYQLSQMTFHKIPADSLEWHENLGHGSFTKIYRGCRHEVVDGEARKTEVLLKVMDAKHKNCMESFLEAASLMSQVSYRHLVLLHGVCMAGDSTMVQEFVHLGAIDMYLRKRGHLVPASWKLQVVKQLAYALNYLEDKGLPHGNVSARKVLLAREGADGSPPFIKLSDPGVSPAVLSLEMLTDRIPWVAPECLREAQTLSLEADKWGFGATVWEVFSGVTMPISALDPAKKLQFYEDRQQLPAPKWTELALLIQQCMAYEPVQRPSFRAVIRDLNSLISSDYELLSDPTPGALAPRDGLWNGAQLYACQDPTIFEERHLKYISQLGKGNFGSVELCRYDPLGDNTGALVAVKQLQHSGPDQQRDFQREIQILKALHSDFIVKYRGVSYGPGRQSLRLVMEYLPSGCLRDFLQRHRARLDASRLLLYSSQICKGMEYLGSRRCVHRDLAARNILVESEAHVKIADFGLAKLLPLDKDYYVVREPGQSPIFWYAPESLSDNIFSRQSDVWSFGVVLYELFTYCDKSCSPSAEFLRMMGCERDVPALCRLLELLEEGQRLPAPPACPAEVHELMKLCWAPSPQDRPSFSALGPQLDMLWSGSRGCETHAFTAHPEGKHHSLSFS

JAK2 = JAK2 (Homo sapiens, UniProt O60674); assay: JAK2 inhibition assay (radioactive enzyme assay, as for JAK3); conditions: average Ki if more than one value determined
Procedure, shortened: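 Both kinases: poly(Glu)4Tyr substrate in 100 mM HEPES pH 7.4, 10 mM MgCl2, 1 mM DTT. Run 20 min at 25° C, TCA stop, filter-bound ³³P counted, Ki(app) fitted after background subtraction. JAK3: final [γ-³³P]ATP 5 μM, enzyme added as 2 nM solution. JAK2: final poly(Glu)4Tyr 15 μM, final ATP 12 μM.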

ROCK I (AA 6-553) = target: T2, ROCK I (AA 6-553) (Homo sapiens, UniProt Q13464); assay: ROCK inhibition assay, standard coupled enzyme system ("Enzyme"); conditions: enzyme-linked assay
T2 construct: ROCK I (AA 6-553)
Procedure, shortened: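 ROCK I (AA 6-553) at 45 nM and 30 °C with 45 μM ATP and 200 μM peptide, in 100 mM HEPES pH 7.5, 10 mM MgCl2, 25 mM NaCl, 2 mM DTT, 1.5% DMSO. ADP output read by a PK/LDH coupled system: 2.5 mM PEP, 350 μM NADH, 30 μg/ml PK, 10 μg/ml LDH.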

[1] = target: T3, full length Aurora-A (AA 1-403) (Homo sapiens, UniProt O14965); assay: Aurora-A inhibition assay, standard coupled enzyme system; conditions: average Ki if more than one value determined
T3 construct: full length Aurora-A (AA 1-403)
T3 sequence (O14965 1-403): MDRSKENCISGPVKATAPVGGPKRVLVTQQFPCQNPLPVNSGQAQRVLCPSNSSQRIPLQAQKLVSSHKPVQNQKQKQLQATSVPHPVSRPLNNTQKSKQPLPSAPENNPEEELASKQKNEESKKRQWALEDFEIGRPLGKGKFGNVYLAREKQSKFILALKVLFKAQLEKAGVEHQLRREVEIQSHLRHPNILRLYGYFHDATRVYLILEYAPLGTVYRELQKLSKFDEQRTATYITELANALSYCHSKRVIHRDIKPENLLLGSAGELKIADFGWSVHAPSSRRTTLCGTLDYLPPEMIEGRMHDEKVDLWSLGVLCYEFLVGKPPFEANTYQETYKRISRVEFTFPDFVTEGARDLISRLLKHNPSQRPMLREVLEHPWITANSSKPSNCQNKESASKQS

Sequence of JAK2 (O60674 whole entry, species assumed): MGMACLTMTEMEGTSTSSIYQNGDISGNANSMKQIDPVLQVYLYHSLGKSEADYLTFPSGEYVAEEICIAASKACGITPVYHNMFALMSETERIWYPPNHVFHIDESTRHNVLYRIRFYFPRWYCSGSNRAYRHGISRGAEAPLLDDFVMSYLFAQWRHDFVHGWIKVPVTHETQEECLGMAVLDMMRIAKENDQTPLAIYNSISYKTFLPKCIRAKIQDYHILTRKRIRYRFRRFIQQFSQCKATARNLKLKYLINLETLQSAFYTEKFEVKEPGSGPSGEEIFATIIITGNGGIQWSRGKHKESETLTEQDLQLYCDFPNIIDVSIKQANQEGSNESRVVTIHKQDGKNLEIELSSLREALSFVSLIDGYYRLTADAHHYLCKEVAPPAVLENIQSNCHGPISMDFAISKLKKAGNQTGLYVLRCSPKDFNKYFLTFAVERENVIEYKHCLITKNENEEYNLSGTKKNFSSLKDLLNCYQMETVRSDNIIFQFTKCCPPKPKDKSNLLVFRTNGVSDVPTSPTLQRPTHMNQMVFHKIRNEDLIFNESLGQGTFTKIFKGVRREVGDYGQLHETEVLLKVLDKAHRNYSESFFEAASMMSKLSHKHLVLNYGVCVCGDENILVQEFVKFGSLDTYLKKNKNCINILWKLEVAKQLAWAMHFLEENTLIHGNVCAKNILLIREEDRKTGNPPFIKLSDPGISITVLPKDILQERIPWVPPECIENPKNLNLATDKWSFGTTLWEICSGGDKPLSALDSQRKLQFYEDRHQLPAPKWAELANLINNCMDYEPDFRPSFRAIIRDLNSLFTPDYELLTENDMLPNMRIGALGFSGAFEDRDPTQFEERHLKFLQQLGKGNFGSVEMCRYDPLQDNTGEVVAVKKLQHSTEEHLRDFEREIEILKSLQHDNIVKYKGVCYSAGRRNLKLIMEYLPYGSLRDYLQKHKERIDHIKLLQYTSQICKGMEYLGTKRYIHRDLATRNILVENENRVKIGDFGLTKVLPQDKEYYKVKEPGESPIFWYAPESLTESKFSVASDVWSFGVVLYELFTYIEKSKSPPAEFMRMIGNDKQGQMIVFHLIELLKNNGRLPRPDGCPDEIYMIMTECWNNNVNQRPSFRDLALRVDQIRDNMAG
T2 sequence (Q13464 6-553, species assumed): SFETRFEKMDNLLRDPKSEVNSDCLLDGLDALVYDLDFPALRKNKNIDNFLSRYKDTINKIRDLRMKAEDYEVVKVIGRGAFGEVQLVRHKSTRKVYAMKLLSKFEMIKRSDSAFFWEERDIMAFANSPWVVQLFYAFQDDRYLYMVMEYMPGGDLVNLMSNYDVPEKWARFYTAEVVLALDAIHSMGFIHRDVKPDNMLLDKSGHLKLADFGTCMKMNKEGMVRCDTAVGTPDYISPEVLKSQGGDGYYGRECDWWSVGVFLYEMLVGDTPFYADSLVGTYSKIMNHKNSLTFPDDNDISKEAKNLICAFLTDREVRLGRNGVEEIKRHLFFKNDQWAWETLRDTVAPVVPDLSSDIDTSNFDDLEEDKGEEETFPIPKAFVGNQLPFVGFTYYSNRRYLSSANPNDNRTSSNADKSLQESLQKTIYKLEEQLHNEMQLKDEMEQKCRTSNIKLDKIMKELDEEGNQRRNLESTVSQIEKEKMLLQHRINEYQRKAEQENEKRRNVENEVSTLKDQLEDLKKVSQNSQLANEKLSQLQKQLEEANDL

Ki (JAK3)	Ki (JAK2)	Ki (ROCK I (AA 6-553))	Ki [1]	Compound
< 500 nM	< 500 nM	< 500 nM	< 500 nM	CC(=O)N1[C@H](C)CN(c2cccc(-c3c[nH]c4ncc(C(=O)OC(C)C)cc34)n2)C[C@@H]1C [Compound 53]
500 to 5000 nM	500 to 5000 nM	500 to 5000 nM	500 to 5000 nM	CC(=O)N1[C@H](C)CN(c2ccc(-c3nnn[nH]3)c(-c3c[nH]c4ncc(Cl)cc34)n2)C[C@@H]1C [Compound 110]
< 500 nM	< 500 nM	500 to 5000 nM	500 to 5000 nM	CCOC(=O)CCC(=O)Nc1cnc2[nH]cc(-c3cccc(N4C[C@@H](C)N(C(C)=O)[C@@H](C)C4)n3)c2c1 [Compound 119]
< 500 nM	< 500 nM	500 to 5000 nM	< 500 nM	Cc1cnc2[nH]cc(-c3cccc(NCc4ccccc4)n3)c2c1 [Compound 39]
< 500 nM	< 500 nM	500 to 5000 nM	500 to 5000 nM	CC(=O)N1[C@H](C)CN(c2cccc(-c3c[nH]c4ncc(NC(=O)c5cccc(F)c5)cc34)n2)C[C@@H]1C [Compound 169]
< 500 nM	< 500 nM	500 to 5000 nM	500 to 5000 nM	CC(=O)N1CCCN(c2cccc(-c3c[nH]c4ncc(F)cc34)n2)CC1 [Compound 49]
< 500 nM	< 500 nM	500 to 5000 nM	500 to 5000 nM	CNC(=O)c1cnc2[nH]cc(-c3cccc(N4C[C@@H](C)N(C(C)=O)[C@@H](C)C4)n3)c2c1 [Compound 59]
< 500 nM	< 500 nM	500 to 5000 nM	500 to 5000 nM	CC(=O)N1[C@H](C)CN(c2cccc(-c3c[nH]c4ncc(NC(=O)c5cnccn5)cc34)n2)C[C@@H]1C [Compound 164]
500 to 5000 nM	500 to 5000 nM	500 to 5000 nM	< 500 nM	CC(=O)N1[C@H](C)CN(c2ccc(N)c(-c3c[nH]c4ncc(Cl)cc34)n2)C[C@@H]1C [Compound 81]
< 500 nM	< 500 nM	500 to 5000 nM	500 to 5000 nM	CNc1cnc2[nH]cc(-c3cccc(N4C[C@@H](C)N(C(C)=O)[C@@H](C)C4)n3)c2c1 [Compound 159]
< 500 nM	< 500 nM	< 500 nM	500 to 5000 nM	C=C/C=C/C(=O)Nc1cnc2[nH]cc(-c3cccc(N4C[C@@H](C)N(C(C)=O)[C@@H](C)C4)n3)c2c1 [Compound 191]
< 500 nM	< 500 nM	500 to 5000 nM	< 500 nM	CC(C)[C@@H](C)Nc1cccc(-c2c[nH]c3ncc(Cl)cc23)n1 [Compound 130]
500 to 5000 nM	500 to 5000 nM	500 to 5000 nM	< 500 nM	CC(=O)N1[C@H](C)CN(c2cccc(-c3c[nH]c4ncc(C(=O)N5CCCCC5)cc34)n2)C[C@@H]1C [Compound 54]
< 500 nM	< 500 nM	500 to 5000 nM	500 to 5000 nM	CC(=O)N1[C@H](C)CN(c2cccc(-c3c[nH]c4ncc(NC(=O)C5CCCC5)cc34)n2)C[C@@H]1C [Compound 166]
< 500 nM	< 500 nM	< 500 nM	500 to 5000 nM	CC(=O)N1[C@H](C)CN(c2cccc(-c3c[nH]c4ncc(NC(=O)c5ccccc5F)cc34)n2)C[C@@H]1C [Compound 172]
< 500 nM	< 500 nM	500 to 5000 nM	< 500 nM	CC(=O)N1[C@H](C)CN(c2cc(C(N)=O)cc(-c3c[nH]c4ncc(Cl)cc34)n2)C[C@@H]1C [Compound 97]

Ki (JAK3)	Ki (JAK2)	Ki (ROCK I (AA 6-553))	Ki [1]	Compound
500 to 5000 nM	> 5000 nM	500 to 5000 nM	500 to 5000 nM	CC(=O)N1[C@H](C)CN(c2cccc(-c3c[nH]c4ncc(C(=O)N5CCN(C)CC5)cc34)n2)C[C@@H]1C [Compound 57]
< 500 nM	< 500 nM	500 to 5000 nM	500 to 5000 nM	CC(=O)N1[C@H](C)CN(c2cccc(-c3c[nH]c4ncc(NC(=O)C(C)C)cc34)n2)C[C@@H]1C [Compound 117]
500 to 5000 nM	500 to 5000 nM	500 to 5000 nM	< 500 nM	O=C(O)c1ccc(NCc2ccccc2)nc1-c1c[nH]c2ncc(Cl)cc12 [Compound 44]
< 500 nM	< 500 nM	500 to 5000 nM	< 500 nM	CC(=O)N1[C@H](C)CN(c2cc(C)c(C#N)c(-c3c[nH]c4ncc(Cl)cc34)n2)C[C@@H]1C [Compound 80]
< 500 nM	< 500 nM	< 500 nM	500 to 5000 nM	CC(=O)N1[C@H](C)CN(c2cccc(-c3c[nH]c4ncc(NC(=O)c5ccccc5)cc34)n2)C[C@@H]1C [Compound 156]
< 500 nM	< 500 nM	500 to 5000 nM	< 500 nM	CC(=O)N1[C@H](C)CN(c2cc(C#N)cc(-c3c[nH]c4ncc(Cl)cc34)n2)C[C@@H]1C [Compound 98]
500 to 5000 nM	500 to 5000 nM	500 to 5000 nM	< 500 nM	COC(=O)c1ccc(-c2c[nH]c3ncc(Cl)cc23)nc1NCc1ccccc1 [Compound 43]
< 500 nM	< 500 nM	500 to 5000 nM	< 500 nM	CC(=O)N1[C@H](C)CN(c2cc(C(=O)O)cc(-c3c[nH]c4ncc(Cl)cc34)n2)C[C@@H]1C [Compound 67]
< 500 nM	< 500 nM	500 to 5000 nM	500 to 5000 nM	CCOC(=O)Nc1cnc2[nH]cc(-c3cccc(N4C[C@@H](C)N(C(C)=O)[C@@H](C)C4)n3)c2c1 [Compound 70]
< 500 nM	< 500 nM	500 to 5000 nM	500 to 5000 nM	C=CC(=O)Nc1cnc2[nH]cc(-c3cccc(N4C[C@@H](C)N(C(C)=O)[C@@H](C)C4)n3)c2c1 [Compound 118]
< 500 nM	< 500 nM	500 to 5000 nM	500 to 5000 nM	CC(=O)N1[C@H](C)CN(c2cccc(-c3c[nH]c4ncc(NC(=O)c5nc[nH]n5)cc34)n2)C[C@@H]1C [Compound 190]
< 500 nM	< 500 nM	500 to 5000 nM	500 to 5000 nM	CC(=O)N1CCCN(c2cccc(-c3c[nH]c4ncc(C(=O)NCCN5CCOCC5)cc34)n2)CC1 [Compound 124]
< 500 nM	< 500 nM	500 to 5000 nM	< 500 nM	OC[C@@H](Nc1cccc(-c2c[nH]c3ncc(Cl)cc23)n1)c1ccccc1 [Compound 101]
< 500 nM	< 500 nM	500 to 5000 nM	500 to 5000 nM	C/C=C/C(=O)Nc1cnc2[nH]cc(-c3cccc(N4C[C@@H](C)N(C(C)=O)[C@@H](C)C4)n3)c2c1 [Compound 181]
< 500 nM	< 500 nM	500 to 5000 nM	500 to 5000 nM	CC(=O)N1CCCN(c2cccc(-c3c[nH]c4ncc(C(=O)NCCCN5CCN(C)CC5)cc34)n2)CC1 [Compound 125]
< 500 nM	< 500 nM	500 to 5000 nM	< 500 nM	CC(=O)N1[C@H](C)CN(c2cccc(-c3c[nH]c4ncc(C)cc34)n2)C[C@@H]1C [Compound 41]
